From PubChem BioAssay AID1963986 (Molecular Pharmacology Branch, DTP, NCI, 2024)

System: 171881-019-R-J1-PDC tumor spheroid viability
Experiment: Anticancer human tumor 171881-019-R-J1-PDC patient-derived invasive breast carcinoma cell line growth inhibition [PI3K]
Conditions: spheroids with HUVEC and MSC; for viability, T/C: stronger effect = lower value
Procedure, shortened: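 Three cell types, namely tumor cells, endothelial cells and mesenchymal stem cells, formed each spheroid. Combinations with four PI3K inhibitors were screened at clinically achievable concentrations decreasing by half-log, and spheroid viability was recorded.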

[1] = curve of first compound, second compound 0.0316 µM
[2] = curve of first compound, second compound 0.1 µM
[3] = curve of first compound, second compound 0.316 µM
[4] = curve of first compound, second compound 1 µM
[5] = curve of first compound, second compound 3.16 µM
[6] = curve of first compound, second compound 10 µM
[7] = second compound 0.0316 µM, first compound 0.0316 µM
[8] = second compound 0.0316 µM, first compound 0.1 µM
[9] = second compound 0.0316 µM, first compound 0.316 µM
[10] = second compound 0.0316 µM, first compound 1 µM
[11] = second compound 0.0316 µM, first compound 3.16 µM
[12] = second compound 0.0316 µM, first compound 10 µM
[13] = second compound 0.1 µM, first compound 0.0316 µM
[14] = second compound 0.1 µM, first compound 0.1 µM
[15] = second compound 0.1 µM, first compound 0.316 µM
[16] = second compound 0.1 µM, first compound 1 µM
[17] = second compound 0.1 µM, first compound 3.16 µM
[18] = second compound 0.1 µM, first compound 10 µM
[19] = second compound 0.316 µM, first compound 0.0316 µM
[20] = second compound 0.316 µM, first compound 0.1 µM
[21] = second compound 0.316 µM, first compound 0.316 µM
[22] = second compound 0.316 µM, first compound 1 µM
[23] = second compound 0.316 µM, first compound 3.16 µM
[24] = second compound 0.316 µM, first compound 10 µM
[25] = second compound 1 µM, first compound 0.0316 µM
[26] = second compound 1 µM, first compound 0.1 µM
[27] = second compound 1 µM, first compound 0.316 µM
[28] = second compound 1 µM, first compound 1 µM
[29] = second compound 1 µM, first compound 3.16 µM
[30] = second compound 1 µM, first compound 10 µM
[31] = second compound 3.16 µM, first compound 0.0316 µM
[32] = second compound 3.16 µM, first compound 0.1 µM
[33] = second compound 3.16 µM, first compound 0.316 µM
[34] = second compound 3.16 µM, first compound 1 µM
[35] = second compound 3.16 µM, first compound 3.16 µM
[36] = second compound 3.16 µM, first compound 10 µM
[37] = second compound 10 µM, first compound 0.0316 µM
[38] = second compound 10 µM, first compound 0.1 µM
[39] = second compound 10 µM, first compound 0.316 µM
[40] = second compound 10 µM, first compound 1 µM
[41] = second compound 10 µM, first compound 3.16 µM
[42] = second compound 10 µM, first compound 10 µM
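Note: spheroids exposed to compound for 7 days before viability read.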
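Throughout, for viability, T/C: 100% = DMSO vehicle-treated spheroids.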

`CC1(C)CCC(Nc2ncc(C(F)(F)F)c(-c3c[nH]c4c(P(C)(C)=O)c(C#N)ccc34)n2)CN1` (stereo not given) + CC(Nc1ncnc2nc[nH]c12)c1cc2cccc(Cl)c2c(=O)n1-c1ccccc1 showed an IC50 [1] of 5910 nM, an IC50 [2] of 5620 nM and an IC50 [3] of 5580 nM. The IC50 [4] was 5220 nM, the IC50 [5] was 4430 nM and the IC50 [6] was under 31.6 nM. For the same compound, the viability, T/C [7] was 68.3%, the viability, T/C [8] was 77.2% and the viability, T/C [9] was 71.8%. The viability, T/C [10] was 79.3%, the viability, T/C [11] was 84.1% and the viability, T/C [12] was 28.1%. For the same compound, the viability, T/C [13] was 65.5%, the viability, T/C [14] was 74.5% and the viability, T/C [15] was 73.1%. For the same compound, the viability, T/C [16] was 81.5%, the viability, T/C [17] was 88.8% and the viability, T/C [18] was 23.3%. The viability, T/C [19] was 65.5%, the viability, T/C [20] was 75.1% and the viability, T/C [21] was 74.1%. It also gave a viability, T/C [22] of 83.2%, a viability, T/C [23] of 81.9% and a viability, T/C [24] of 23.4%. For the same compound, the viability, T/C [25] was 69.1%, the viability, T/C [26] was 69% and the viability, T/C [27] was 73.8%. It also gave a viability, T/C [28] of 78.6%, a viability, T/C [29] of 73% and a viability, T/C [30] of 20.6%. The viability, T/C [31] was 66%, the viability, T/C [32] was 65% and the viability, T/C [33] was 67.9%. For the same compound, the viability, T/C [34] was 71.4%, the viability, T/C [35] was 65.3% and the viability, T/C [36] was 12.7%. It also gave a viability, T/C [37] of 51%, a viability, T/C [38] of 47% and a viability, T/C [39] of 45.9%. It also gave a viability, T/C [40] of 48.5%, a viability, T/C [41] of 41.4% and a viability, T/C [42] of 3.63%.
With `CC(Nc1ccc2c(c1)OCCn1cc(N3C(=O)OCC3C(F)F)nc1-2)C(N)=O` (stereo not given) the viability, T/C (compound 0.00316 µM) was 94.1% [middle of 8 runs], the viability, T/C (compound 0.01 µM) was 83.8% [middle of 8 runs] and the viability, T/C (compound 0.0316 µM) was 56.6% [middle of 8 runs]. For the same compound, the viability, T/C (compound 0.1 µM) was 40.9% [middle of 8 runs], the viability, T/C (compound 0.316 µM) was 28% [middle of 8 runs] and the viability, T/C (compound 1 µM) was 21.4% [middle of 8 runs]. The IC50 (compound alone, run of 05/08/2023) was 52.5 nM [middle of 8 runs].
`CNC(=O)c1ccc(N2C(=S)N(c3ccc(C#N)c(C(F)(F)F)c3)C(=O)C2(C)C)cc1F` + Cc1nc(NC(=O)N2CCCC2C(N)=O)sc1-c1ccnc(C(C)(C)C(F)(F)F)c1 was tested, and the IC50 [1] was over 10000 nM, the IC50 [2] was over 10000 nM and the IC50 [3] was 4660 nM. The IC50 [4] was under 31.6 nM, the IC50 [5] was under 31.6 nM and the IC50 [6] was under 31.6 nM. The viability, T/C [7] was 90.4%, the viability, T/C [8] was 81.5% and the viability, T/C [9] was 84.4%. It also gave a viability, T/C [10] of 87.7%, a viability, T/C [11] of 86% and a viability, T/C [12] of 69.7%. It also gave a viability, T/C [13] of 79%, a viability, T/C [14] of 77% and a viability, T/C [15] of 82.9%. For the same compound, the viability, T/C [16] was 66.4%, the viability, T/C [17] was 74.6% and the viability, T/C [18] was 66.1%. For the same compound, the viability, T/C [19] was 58.6%, the viability, T/C [20] was 50.2% and the viability, T/C [21] was 50.3%. For the same compound, the viability, T/C [22] was 52.5%, the viability, T/C [23] was 57.2% and the viability, T/C [24] was 45.1%. The viability, T/C [25] was 31.2%, the viability, T/C [26] was 31.1% and the viability, T/C [27] was 31.8%. It also gave a viability, T/C [28] of 30.9%, a viability, T/C [29] of 32.7% and a viability, T/C [30] of 27.7%. It also gave a viability, T/C [31] of 13.2%, a viability, T/C [32] of 12.7% and a viability, T/C [33] of 13.1%. The viability, T/C [34] was 12.6%, the viability, T/C [35] was 12.5% and the viability, T/C [36] was 11.1%. It also gave a viability, T/C [37] of 3.32%, a viability, T/C [38] of 3.53% and a viability, T/C [39] of 3.59%. It also gave a viability, T/C [40] of 3.51%, a viability, T/C [41] of 3.82% and a viability, T/C [42] of 3.48%.
With `C[C@@H](NC(=O)c1ncnc(N)c1Cl)c1ncc(C(=O)Nc2cc(C(F)(F)F)c(Cl)cn2)s1` + CC(Nc1ccc2c(c1)OCCn1cc(N3C(=O)OCC3C(F)F)nc1-2)C(N)=O the IC50 (curve of first compound, second compound 0.00316 µM) was 5950 nM, the IC50 (curve of first compound, second compound 0.01 µM) was 2620 nM and the IC50 [1] was 399 nM. For the same compound, the IC50 [2] was under 31.6 nM, the IC50 [3] was under 31.6 nM and the IC50 [4] was under 31.6 nM. For the same compound, the viability, T/C (second compound 0.00316 µM, first compound 0.0316 µM) was 71.3%, the viability, T/C (second compound 0.00316 µM, first compound 0.1 µM) was 88.5% and the viability, T/C (second compound 0.00316 µM, first compound 0.316 µM) was 84.2%. For the same compound, the viability, T/C (second compound 0.00316 µM, first compound 1 µM) was 80.4%, the viability, T/C (second compound 0.00316 µM, first compound 3.16 µM) was 63.7% and the viability, T/C (second compound 0.00316 µM, first compound 10 µM) was 38.8%. The viability, T/C (second compound 0.01 µM, first compound 0.0316 µM) was 80.3%, the viability, T/C (second compound 0.01 µM, first compound 0.1 µM) was 78.5% and the viability, T/C (second compound 0.01 µM, first compound 0.316 µM) was 65.8%. For the same compound, the viability, T/C (second compound 0.01 µM, first compound 1 µM) was 70.3%, the viability, T/C (second compound 0.01 µM, first compound 3.16 µM) was 44.4% and the viability, T/C (second compound 0.01 µM, first compound 10 µM) was 27.4%. For the same compound, the viability, T/C [7] was 51.4%, the viability, T/C [8] was 53.9% and the viability, T/C [9] was 49.5%. The viability, T/C [10] was 46.5%, the viability, T/C [11] was 31.1% and the viability, T/C [12] was 17.1%. It also gave a viability, T/C [13] of 38.9%, a viability, T/C [14] of 35.7% and a viability, T/C [15] of 33.8%. It also gave a viability, T/C [16] of 31.6%, a viability, T/C [17] of 20.1% and a viability, T/C [18] of 10.7%. The viability, T/C [19] was 27%, the viability, T/C [20] was 24.5% and the viability, T/C [21] was 24.9%. It also gave a viability, T/C [22] of 23%, a viability, T/C [23] of 13.5% and a viability, T/C [24] of 6.3%. For the same compound, the viability, T/C [25] was 20.7%, the viability, T/C [26] was 20.9% and the viability, T/C [27] was 19.3%. For the same compound, the viability, T/C [28] was 16.4%, the viability, T/C [29] was 9.28% and the viability, T/C [30] was 3.79%.
`Cn1nccc1Nc1nccc(-c2ccn(C(CO)c3ccc(Cl)c(F)c3)c(=O)c2)n1` (stereo not given) + CC(Nc1ncnc2nc[nH]c12)c1cc2cccc(Cl)c2c(=O)n1-c1ccccc1 showed an IC50 [1] of 544 nM, an IC50 [2] of 472 nM and an IC50 [3] of 471 nM. The IC50 [4] was 345 nM, the IC50 [5] was 168 nM and the IC50 [6] was 35.5 nM. It also gave a viability, T/C [7] of 94%, a viability, T/C [8] of 84% and a viability, T/C [9] of 62.2%. For the same compound, the viability, T/C [10] was 36.6%, the viability, T/C [11] was 24% and the viability, T/C [12] was 20.7%. It also gave a viability, T/C [13] of 91.1%, a viability, T/C [14] of 88.1% and a viability, T/C [15] of 54.7%. The viability, T/C [16] was 37.1%, the viability, T/C [17] was 23.6% and the viability, T/C [18] was 19.9%. The viability, T/C [19] was 104%, the viability, T/C [20] was 89.6% and the viability, T/C [21] was 56.9%. It also gave a viability, T/C [22] of 35.1%, a viability, T/C [23] of 23.1% and a viability, T/C [24] of 18.5%. It also gave a viability, T/C [25] of 98.4%, a viability, T/C [26] of 77.4% and a viability, T/C [27] of 51.4%. For the same compound, the viability, T/C [28] was 31.3%, the viability, T/C [29] was 21.3% and the viability, T/C [30] was 15.7%. For the same compound, the viability, T/C [31] was 79.3%, the viability, T/C [32] was 61.2% and the viability, T/C [33] was 36%. For the same compound, the viability, T/C [34] was 21.8%, the viability, T/C [35] was 14.9% and the viability, T/C [36] was 13%. The viability, T/C [37] was 51.3%, the viability, T/C [38] was 39.2% and the viability, T/C [39] was 27.9%. It also gave a viability, T/C [40] of 15%, a viability, T/C [41] of 10.6% and a viability, T/C [42] of 6.93%.
